From PubChem BioAssay AID248 (DTP/NCI, 2004)
Several values for one entry are separate records, joined by “and”; a condition that tells them apart may be missing. Equal entries are not always repeated. Inconclusive results and toxic doses are left out. Rule as the data show it: active = T/C of 150% or more; inactive = T/C below 125%.

Tested on: L1210 leukemia ip in BDF1 mice, survival T/C
Assay: NCI In Vivo Anticancer Drug Screen. Data for tumor model L1210 Leukemia (intraperitoneal) in B6D2F1 (BDF1) mice
Details: endpoint: mean survival time, higher = longer survival
How it was run: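 Mice bearing the transplanted tumor received compound or vehicle. Survival of the treated group was divided by that of the vehicle-treated control group to give the ratio.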

[1] = dose: 50.0 mg/kg/injection, schedule: Q01DX001 (ip), vehicle: Klucel (hydroxypropylcellulose) (HPC)
[2] = dose: 100.0 mg/kg/injection, schedule: Q01DX001 (ip), vehicle: Klucel (hydroxypropylcellulose) (HPC)
[3] = dose: 100.0 mg/kg/injection, schedule: Q04DX003 (ip), vehicle: Klucel (hydroxypropylcellulose) (HPC)
[4] = dose: 200.0 mg/kg/injection, schedule: Q01DX001 (ip), vehicle: Klucel (hydroxypropylcellulose) (HPC)
[5] = dose: 200.0 mg/kg/injection, schedule: Q04DX003 (ip), vehicle: Klucel (hydroxypropylcellulose) (HPC)
[6] = dose: 25.0 mg/kg/injection, schedule: Q04DX003 (ip), vehicle: saline
[7] = dose: 50.0 mg/kg/injection, schedule: Q04DX003 (ip), vehicle: saline
[8] = dose: 100.0 mg/kg/injection, schedule: Q01DX009 (ip), vehicle: Klucel (hydroxypropylcellulose) (HPC)
[9] = dose: 100.0 mg/kg/injection, schedule: Q01DX009 (ip), vehicle: saline
[10] = dose: 200.0 mg/kg/injection, schedule: Q01DX009 (ip), vehicle: Klucel (hydroxypropylcellulose) (HPC)
[11] = dose: 25.0 mg/kg/injection, schedule: Q01DX009 (ip), vehicle: saline with Tween-80
[12] = dose: 100.0 mg/kg/injection, schedule: Q01DX001 (ip), vehicle: saline
[13] = dose: 200.0 mg/kg/injection, schedule: Q01DX001 (ip), vehicle: saline
[14] = dose: 400.0 mg/kg/injection, schedule: Q01DX001 (ip), vehicle: saline
[15] = dose: 150.0 mg/kg/injection, schedule: Q01DX009 (ip), vehicle: saline
[16] = dose: 400.0 mg/kg/injection, schedule: Q04DX003 (ip), vehicle: Klucel (hydroxypropylcellulose) (HPC)
[17] = dose: 75.0 mg/kg/injection, schedule: Q01DX009 (ip), vehicle: saline
[18] = dose: 400.0 mg/kg/injection, schedule: Q01DX009 (ip), vehicle: Klucel (hydroxypropylcellulose) (HPC)

Measured: T/C

c1ccc(C(c2ccccc2)c2ccccn2)cc1
inactive: dose: 50.0 mg/kg/injection, schedule: Q04DX002 (ip), vehicle: other 95 % of control | dose: 100.0 mg/kg/injection, schedule: Q04DX002 (ip), vehicle: Klucel (hydroxypropylcellulose) (HPC) 98 % of control | dose: 100.0 mg/kg/injection, schedule: Q04DX002 (ip), vehicle: other 95 % of control | dose: 100.0 mg/kg/injection, schedule: Q04DX003 (ip), vehicle: other 103 % of control | dose: 200.0 mg/kg/injection, schedule: Q04DX002 (ip), vehicle: Klucel (hydroxypropylcellulose) (HPC) 102 % of control | dose: 200.0 mg/kg/injection, schedule: Q04DX002 (ip), vehicle: other 95 % of control | dose: 200.0 mg/kg/injection, schedule: Q04DX003 (ip), vehicle: other 117 % of control | dose: 400.0 mg/kg/injection, schedule: Q04DX002 (ip), vehicle: Klucel (hydroxypropylcellulose) (HPC) 106 % of control | dose: 400.0 mg/kg/injection, schedule: Q04DX003 (ip), vehicle: other 111 % of control

Nc1nc(N)c(-c2ccccc2)c(C(=O)O)n1
inactive: [1] 101 % of control | dose: 50.0 mg/kg/injection, schedule: Q04DX003 (ip), vehicle: Klucel (hydroxypropylcellulose) (HPC) 94 % of control | [2] 95 % of control | [3] 105 % of control | [4] 95 % of control | [5] 105 % of control

O=C(COc1ccc(Cl)cc1)OCCO
inactive: dose: 100.0 mg/kg/injection, schedule: Q01DX001 (ip), vehicle: gum acacia 90 % of control | dose: 200.0 mg/kg/injection, schedule: Q01DX001 (ip), vehicle: gum acacia 96 % of control | dose: 400.0 mg/kg/injection, schedule: Q01DX001 (ip), vehicle: gum acacia 95 % of control

O=S(=O)(NNS(=O)(=O)c1ccccc1)c1ccccc1
inactive: dose: 100.0 mg/kg/injection, schedule: Q01DX001 (ip), vehicle: saline with Tween-80 101 % of control | dose: 200.0 mg/kg/injection, schedule: Q01DX001 (ip), vehicle: saline with Tween-80 94 % of control | dose: 400.0 mg/kg/injection, schedule: Q01DX001 (ip), vehicle: saline with Tween-80 88 % of control

C=CC[Si](C)(C)N1CC1
inactive: dose: 12.5 mg/kg/injection, schedule: Q01DX001 (ip), vehicle: carboxymethylcellulose (CMC) 108 % of control

CCOC(=O)c1cc(N/N=C2/CCCNC2=O)c[nH]1
inactive: dose: 100.0 mg/kg/injection, schedule: Q01DX001 (ip), vehicle: carboxymethylcellulose (CMC) 99 % of control | dose: 200.0 mg/kg/injection, schedule: Q01DX001 (ip), vehicle: carboxymethylcellulose (CMC) 103 % of control | dose: 400.0 mg/kg/injection, schedule: Q01DX001 (ip), vehicle: carboxymethylcellulose (CMC) 94 % of control

CC(C)=CCC(O)(c1ccccc1)C(C)CN(C)C (configuration not stated)
inactive: dose: 12.5 mg/kg/injection, schedule: Q01DX009 (ip), vehicle: saline 94 % of control | dose: 12.5 mg/kg/injection, schedule: Q04DX003 (ip), vehicle: saline 94 % of control | dose: 25.0 mg/kg/injection, schedule: Q01DX009 (ip), vehicle: saline 106 % of control and 103 % of control | [6] 94 % of control | dose: 50.0 mg/kg/injection, schedule: Q01DX009 (ip), vehicle: Klucel (hydroxypropylcellulose) (HPC) 100 % of control | dose: 50.0 mg/kg/injection, schedule: Q01DX009 (ip), vehicle: saline 101 % of control and 96 % of control | [7] 118 % of control | [8] 97 % of control | [9] 98 % of control | [10] 95 % of control

O=C(CCCCC(=O)N/N=C/c1ccncc1)N/N=C/c1ccncc1
inactive: [11] 94 % of control | dose: 50.0 mg/kg/injection, schedule: Q01DX009 (ip), vehicle: saline with Tween-80 91 % of control | dose: 100.0 mg/kg/injection, schedule: Q01DX009 (ip), vehicle: saline with Tween-80 96 % of control and 89 % of control | dose: 400.0 mg/kg/injection, schedule: Q01DX009 (ip), vehicle: saline with Tween-80 91 % of control

CCOc1ncc(N)c(OCC)n1
inactive: dose: 50.0 mg/kg/injection, schedule: Q01DX001 (ip), vehicle: saline 112 % of control | [12] 97 % of control | [13] 103 % of control | [14] 100 % of control

O=S(=O)(OCC(O)C1OCOC2COCOC21)c1ccccc1 (configuration not stated)
inactive: [2] 112 % of control | [4] 93 % of control | dose: 400.0 mg/kg/injection, schedule: Q01DX001 (ip), vehicle: Klucel (hydroxypropylcellulose) (HPC) 97 % of control

OCc1ccn2c1C(O)CC2 (configuration not stated)
inactive: dose: 29.0 mg/kg/injection, schedule: Q01DX009 (ip), vehicle: saline 100 % of control | dose: 45.0 mg/kg/injection, schedule: Q01DX009 (ip), vehicle: saline 115 % of control | dose: 100.0 mg/kg/injection, schedule: Q04DX003 (ip), vehicle: saline with Tween-80 108 % of control | [15] 111 % of control | dose: 200.0 mg/kg/injection, schedule: Q04DX003 (ip), vehicle: saline with Tween-80 117 % of control | dose: 400.0 mg/kg/injection, schedule: Q04DX003 (ip), vehicle: saline with Tween-80 97 % of control

O=C(N/N=C\c1ccc2c(c1)OCO2)N/N=C/c1ccc2c(c1)OCO2
inactive: [3] 97 % of control | [5] 100 % of control | [16] 97 % of control

COc1ccc(Nc2cccc(Cl)c2)c(C(=O)O)c1
inactive: dose: 40.0 mg/kg/injection, schedule: Q01DX009 (ip), vehicle: saline 100 % of control | dose: 75.0 mg/kg/injection, schedule: Q01DX001 (ip), vehicle: saline 98 % of control | [17] 87 % of control | dose: 150.0 mg/kg/injection, schedule: Q01DX001 (ip), vehicle: saline 90 % of control | [15] 87 % of control

CCCOC(CCC(=O)NC(C)(C)C)CC(=O)NC(C)(C)C (configuration not stated)
inactive: [8] 95 % of control | [3] 103 % of control | [10] 90 % of control | [5] 97 % of control | [18] 90 % of control | [16] 93 % of control

CNNCc1ccccc1
inactive: [12] 117 % of control | [13] 115 % of control

O=C(O)C(=C/c1ccccc1)/C(=C\c1ccccc1)C(=O)O
inactive: [12] 103 % of control | [9] 89 % of control | [13] 105 % of control | dose: 200.0 mg/kg/injection, schedule: Q01DX009 (ip), vehicle: saline 93 % of control | [14] 97 % of control | dose: 400.0 mg/kg/injection, schedule: Q01DX009 (ip), vehicle: saline 90 % of control

C(=N\Nc1nc2ccccc2s1)/c1ccccc1
inactive: [8] 95 % of control | [10] 102 % of control | [18] 100 % of control

CCOc1nn2nnnc2c2ccccc12
inactive: dose: 37.5 mg/kg/injection, schedule: Q04DX003 (ip), vehicle: saline with Tween-80 97 % of control | dose: 75.0 mg/kg/injection, schedule: Q04DX003 (ip), vehicle: saline with Tween-80 97 % of control | dose: 150.0 mg/kg/injection, schedule: Q04DX003 (ip), vehicle: saline with Tween-80 103 % of control

CCN(CC)C(=O)c1cncc(-c2ccccc2)c1
inactive: [2] 97 % of control | [4] 98 % of control

COC1=NS(=O)(=O)N=C(C)O1
inactive: [3] 91 % of control | [5] 102 % of control | [16] 93 % of control

OC1(c2ccccc2)C=C(c2ccccc2)C=C(c2ccccc2)O1 (configuration not stated)
inactive: [1] 87 % of control | [2] 92 % of control | [4] 94 % of control

Cc1ccc(SSc2ccc(C)cc2)cc1
inactive: [17] 108 % of control | dose: 100.0 mg/kg/injection, schedule: Q04DX003 (ip), vehicle: saline 101 % of control | dose: 200.0 mg/kg/injection, schedule: Q04DX003 (ip), vehicle: saline 103 % of control | dose: 400.0 mg/kg/injection, schedule: Q04DX003 (ip), vehicle: saline 88 % of control

CS(=O)(=O)ON1C(=O)c2ccccc2C1=O
inactive: dose: 6.25 mg/kg/injection, schedule: Q01DX009 (ip), vehicle: saline with Tween-80 94 % of control | dose: 12.5 mg/kg/injection, schedule: Q01DX009 (ip), vehicle: saline with Tween-80 98 % of control | [11] 94 % of control | [6] 91 % of control | [7] 93 % of control
